Experimental data: patent publication US20070054262A1, “Methods of identifying optimal variants of peptide epitopes” (priority 2003, published 2007)
Where two headings read alike, the source gives them in different places.

Tests used:
[1] = system: Env 134-specific T cell line; test: Env 134-specific T cell line (stimulated five times with the immunizing peptide): recognition and titration of variant peptides; assay type: cell-based, mouse; details: Env 134 line; for Peptide concentration at which any IFN-γ secretion was detected: highest peptide concentration examined; for Enrichment of CTL able to recognize the peptide: one versus five stimulations; for Affinity reduced from the parent peptide: peptide titration
[2] = system: patients with recurrent or residual cervical carcinoma; details: co-emulsified with HPV-derived CTL epitopes, cited from earlier work
normal human T cells = assay type: cell-based
[3] = system: CTL primed against the parent peptide; test: Recognition of variant peptides by CTL from DNA-immunized HLA-A11/K^b transgenic mice (IFN-γ secretion after restimulation of splenocytes); assay type: cell-based; details: parent Pol 98
From the text: Variants corresponding to five HLA-A2 and -A3 restricted epitopes from 167 HIV varianst were identified and synthesized. These represented all the complete sequences in the Los Alamos database at the time (116 strains), as well as 51 complete clade C sequences from Botswana, and included 22 subtype B and 62 subtype C sequences. These peptides were then characterized with regard to MHC binding, variant distribution, and immunogenicity. To measure immunogenicity, HLA-A2/K^b or HLA-A11/K^b transgenic mice were immunized with the epitopes encoded in a DNA based format ( ). Eleven days after immunization, splenocytes were restimulated with either the epitope corresponding to the epitope encoded by the DNA (parent) or each of the variant peptides. After 6 days in culture, IFN-γ secretion was measured in response to the peptide used to stimulate each culture.

Gag 271 variants = test: Gag 271 variant immunogenicity tested using HLA-A2 transgenic mice; assay type: in vivo; details: 167 HIV variants
From the text: This particular group of 21 epitopes was selected based on their identity conservation in Clade B HIV sequences, with conservation across HIV clades as a secondary consideration. Because of this criteria, the form of epitope chosen as the parent peptide was not the most common variant (e.g. Gag 386, Gag 271, Pol 98). In some cases (e.g., see Gag 386 data), the “parent” epitope and the most common variant were recognized to the same extent. However, in some cases the selection of epitope to include as the “parent” epitope was predicted to make a difference in the immunological conservation. An example of this was the Gag 271 epitope (FIG. 4). The variant most commonly seen in clade B sequences was the […] form, while the most common form of the epitope was […]. Not all amino acids are considered equal to each other in their ability to substitute (Tangri). For example, asparagine (N) is considered a conservative substitution for serine (S), while the opposite substitution in only considered semi-conserved. When the program calculated immunological conservation using the […] peptide as the parent peptide, only two variants were predicted to be immunogenic. […] This prediction was tested using HLA-A2 transgenic mice. […] This has important implications in epitope selection for vaccine development, and epitope performance can be predicted.

[4] = system: Gag 386-specific T cell line; test: Gag 386-specific T cell line (stimulated five times with the immunizing peptide): recognition and titration of variant peptides; assay type: cell-based, mouse; details: Gag 386 line; for Peptide affinity (titration against CTL stimulated 5 times with the parent peptide): IFN-γ
From the text: Recognition after multiple restimulations The observed recognition of variant peptides by CTL raised against the parent peptide might be due to either promiscuous recognition at the level of a single TCR or simply a mixture of TCRs against the immunizing peptide which are each able to recognize subtly different peptides. To distinguish between these two possibilities, Env 134- or Gag 386-specific T cell lines were generated by stimulating five times with the immunizing peptide, and then tested for recognition of a partial panel of variant peptides. These T cell lines were also characterized for Vβ TCR usage against a panel of antibodies predicted to react with the TCR of the mouse strains utilized for these experiments.
Because the SU is a measure of the number of cells needed to secrete a defined amount of IFN-γ, a higher SU value would correspond to an enrichment of IFN-γ, producing cells.
Both lines were also characterized with regard to the affinity of certain of the variant peptides by titrating the variant peptides examined above (Table 5A and 5B).

HLA-DR molecules = details: cited from earlier work

For QITPLCVTL [Env 134 variant], the “Activity as measured by SU after five restimulations” value (“Activity as measured by SU” below) [1] was “lowest activity”, the “Peptide concentration at which any IFN-γ secretion was detected” value (“Peptide concentration” below) [1] was 1 µg/mL and the “Enrichment of CTL able to recognize the peptide” value (shortened to “Enrichment of CTL able”) [1] was “little or no enrichment”.
In the case of “aKXVAAWTLKAAa-NH2 [PADRE®, a=D-alanine, X=cyclohexylalanine]”, the Safety [2] is listed as “favorable safety profile”, the “Patients in whom PADRE T cell reactivity was detected” value ([2]; immunocompromised patients) is listed as “four” and the “Potency relative to TT 830-843 antigen for activation of T cell responses, on a molar basis” value (normal human T cells) is listed as “about 100 fold”. For the same substance, the “Donors with primary T cell responses” value (normal human T cells; three normal donors tested) was “three”.
For VSIKVGGQIK, the “Recognition relative to the parent peptide” value [3] was at most 10 fold.
With KLTPLCVIL [Env 134 variant] the “Activity as measured by SU” value [1] was “lowest activity”, the “Peptide concentration” value [1] was 1 µg/mL and the “Enrichment of CTL able” value [1] was “little or no enrichment”.
In the case of KITPLCVTL [Env 134 variant], the “Affinity reduced from the parent peptide” value [1] is reported as “approximately 10 fold”.
For MTSNPPIPV, the “Variants that would be recognized if this form of the peptide was utilized in vaccines” value (Gag 271 variants) was “approximately 152 of 167 variants”.
In the case of “VLAEAMSQI [Gag 386 single anchor variant]”, the “Peptide affinity (titration against CTL stimulated 5 times with the parent peptide)” value (from here on “Peptide affinity”) [4] is reported as “highest affinity”.
For MTNNPPIPV, the “Variants that would be recognized if this form of the peptide was utilized in vaccines” value (Gag 271 variants) was 39 of 167 variants.
With VLAEAMSQV [Gag 386] the “Peptide affinity” value [4] was “highest affinity”.
In the case of KLTPFCVTL [Env 134 variant], the “Activity as measured by SU” value [1] is reported as “lowest activity”, the “Peptide concentration” value [1] is reported as 1 µg/mL and the “Enrichment of CTL able” value [1] is reported as “little or no enrichment”.
For ILAEAMSKA [Gag 386 variant], the “Recognition of variant peptides (SU, IFN-γ), one versus five peptide stimulations” value [4] was “never recognized” and the “Peptide affinity” value [4] was “not recognized”.
For QYIKANSKFIGITE [TT 830-843], the “Antigen concentration at which the 10,000 cpm proliferation level was reached” value (normal human T cells) is given as “about 10,000 ng/ml”, the “Donors with primary T cell responses” value (normal human T cells) is given as 2 and the DR molecules bound (HLA-DR molecules) is given as “seven”.
For KLTPLCVPL [Env 134 variant], the “Activity as measured by SU” value [1] was “lowest activity”, the “Peptide concentration” value [1] was 1 µg/mL and the “Enrichment of CTL able” value [1] was “little or no enrichment”.
For ELTPLCVTL [Env 134 variant], the “Activity as measured by SU” value [1] was “lowest activity”, the “Peptide concentration” value [1] was 1 µg/mL and the “Enrichment of CTL able” value [1] was “little or no enrichment”.
With QLTPLCVTL [Env 134 variant] the “Affinity reduced from the parent peptide” value [1] was about 100 fold.
